Key:
[1] = system: PC12 cell line expressing EGFP-tagged HD exon 1 with Q74; test: Turnover of Q74 protein and aggregates in stable doxycycline-inducible PC12 cells after switching expression off; assay type: cell-based, rat; settings: for numbers of aggregate containing cells / visible aggregates: vs time-matched control; for aggregate formation as high molecular weight fraction on the stack (western blot): 72 hours after switching off the expression, vs time-matched untreated controls
Procedure: (§1) African green monkey kidney cells (COS-7) were grown in Dulbecco's Modified Eagle Medium (DMEM, Sigma) supplemented with 10% Fetal Bovine Serum (FBS), 100 U/ml Penicillin/Streptomycin, 2 mM L-Glutamine and 1 mM Sodium Pyruvate at 37° C., 5% Carbon dioxide. The cells were grown on coverslips in six-well plates for immunofluorescence analysis, or were directly grown in six-well plates to 60-80% confluency for 24 hours for western blot analysis. Transfection was done using LipofectAMINE reagent (Invitrogen) using the manufacturer's protocol. The transfection mixture was replaced by normal culture medium after 5 hours incubation at 37° C. and the transfected cells were analysed by immunofluorescence or immunoblot 48 hours after transfection. The cells were left untreated or treated with 10 mM 3-methyl adenine (3-MA, Sigma), 0.5 mM N^6, N^6, Dimethyl adenosine (DMA, Sigma), 0.2 μg/ml Rapamycin (Sigma), 200 nM Bafilomycin A1 (BafA1, Sigma), 10 μM Lactacystin (Sigma) or 10 μM epoxomicin (Affinity research products ltd.) for 15 hours before fixation for immunofluorescence or processing for western blots. DMA, BafA1, epoxomicin and rapamycin were dissolved in DMSO and 3-MA and lactacystin were in water. Equal amounts of water or DMSO were added to the untreated controls, where relevant. The cells on coverslips were rinsed with 1×PBS, fixed with 4% paraformaldehyde in 1×PBS for 20 min and mounted in antifadent supplemented with 4′,6-diamidino-2-phenylindole (DAPI, 3 μg/ml, Sigma) to allow visualisation of nuclear morphology. The PC12 stable cells were maintained at 75 μg/ml hygromycin in standard medium consisting of high glucose DMEM (Sigma) with 100 U/ml penicillin/streptomycin, 2 mM L-glutamine (Invitrogen), 10% heat-inactivated horse serum (Invitrogen), 5% Tet-approved fetal bovine serum (FBS) (Clontech) and 100 μg/ml G418 (Invitrogen) at 37° C., 10% CO2. The cells were seeded at 1-2×10^5 per well in 6-well plates and were induced with 1 μg/ml doxycycline (Sigma) for 8 hours. The expression of transgenes was switched off by removing doxycycline from the medium. Cells were either left untreated or treated with 3-MA, BafA1, epoxomicin, lactacystin, rapamycin, 10 μg/ml cycloheximide (Sigma) or cycloheximide+rapamycin at the concentrations specified above for 24, 48 or 72 hours and the medium with the inhibitors/activator changed every 24 hours. The cells were then scraped off from the wells into 1.5 ml eppendorf tubes, pelleted at 8000 rpm and washed twice with 1×PBS. They were either fixed with 4% paraformaldehyde for 20 minutes and mounted in DAPI over coverslips on glass slides or processed for western blot analysis. CCI-779 was supplied by Wyeth Pharmaceuticals (Philadelphia). For tissue culture experiments, a stock solution of 1M in ethanol was prepared the day of experiment and was diluted in the appropriate medium
The pellets for westerns from COS-7 or PC12 cells were lysed on ice in Laemmli buffer (62.5 mM Tris-HCl pH6.8, 5% β-mercaptoethanol, 10% glycerol, and 0.01% bromophenol blue) for 30 min in the presence of protease inhibitors (Roche Diagnostics). The lysates were subjected to SDS-PAGE (10%) electrophoresis and proteins transferred onto nitrocellulose membrane (Amersham Pharmacia Biotech). The primary antibodies used include mouse monoclonal anti-GFP antibody (8362-1, Clontech) at 1:2000, rabbit monoclonal anti-actin antibody (A2066, Sigma) at 1:3000, mouse monoclonal anti-tubulin antibody (Clone DM 1A, Sigma) at 1:1000 and mouse monoclonal anti-HA antibody (Covance) at 1:1000. Blots were probed with Horse Radish Peroxidase (HRP) conjugated anti-mouse or anti-rabbit IgG (Bio Rad) at 1:2000. Bands were visualised using the ECL detection reagent (Amersham). […]

[2] = system: COS-7 cells expressing an exon 1 fragment of the HD gene with 74 glutamines (Q74); test: Aggregate formation and abnormal cell nuclei in transiently transfected COS-7 cells expressing Q74; assay type: cell-based, African green monkey; settings: for cell death (apoptotic nuclear morphology) in Q74-expressing cells / proportions of Q74-expressing cells with aggregates / appearance (size, number) of Q74 aggregates in cells with aggregates: 48 hours after transfection; for cell death (apoptotic nuclear morphology) in Q74-expressing cells: drug for 15 hours before fixing, same concentrations; for cell death (apoptotic nuclear morphology) in Q74-expressing cells / proportions of Q74-expressing cells with aggregates: vs untreated; for proportions of Q74-expressing cells with aggregates: drug for 15 hours before fixing: 10 mM 3-MA, 0.5 mM DMA, 200 nM BafA1, 0.2 μg/ml rapamycin, 10 μM epoxomicin, 10 μM lactacystin; for appearance (size, number) of Q74 aggregates in cells with aggregates: immunofluorescence, drug 15 hours
Description: (§2) Mammalian expression vectors comprising EGFP (pEGFP-C1, Clontech) fused at its C-terminus with a Huntington's Disease gene exon 1 fragment with 74 polyglutamine repeats (Q74) or a polyalanine stretch of 19 repeats (A19) were used (Rankin, J. et al (2000) Biochem. J., 348, 15-19; Narain, Y. et al (1999) J. Med. Genet., 36, 739-746.). A Haemagglutinin-tagged Huntington's Disease gene exon 1 fragment with 74 polyglutamine repeats in pHM6 vector (Q74-HA) was also used. The PC12 stable lines expressing exon 1 of Huntington gene were as described in Wyttenbach A. et al., (2001) Hum. Mol. Genet. 10 1829-45.
as §1
(§3) The pellets for westerns from COS-7 or PC12 cells were lysed on ice in Laemmli buffer (62.5 mM Tris-HCl pH6.8, 5% β-mercaptoethanol, 10% glycerol, and 0.01% bromophenol blue) for 30 min in the presence of protease inhibitors (Roche Diagnostics). The lysates were subjected to SDS-PAGE (10%) electrophoresis and proteins transferred onto nitrocellulose membrane (Amersham Pharmacia Biotech). […]

[3] = system: COS-7 cells expressing EGFP fused to 19 alanines (A19); test: Aggregate formation and abnormal cell nuclei in transiently transfected COS-7 cells expressing A19; assay type: cell-based, African green monkey; settings: for cell death (abnormal nuclei) in A19-expressing cells / proportions of A19-expressing cells with aggregates / appearance (size, number) of A19 aggregates in cells with aggregates: 48 hours after transfection; for cell death (abnormal nuclei) in A19-expressing cells: drug for 15 hours before fixing, same concentrations; for cell death (abnormal nuclei) in A19-expressing cells / proportions of A19-expressing cells with aggregates: vs untreated; for proportions of A19-expressing cells with aggregates: drug for 15 hours before fixing: 10 mM 3-MA, 0.5 mM DMA, 200 nM BafA1, 0.2 μg/ml rapamycin, 10 μM epoxomicin; for appearance (size, number) of A19 aggregates in cells with aggregates: immunofluorescence, drug 15 hours
Description: as §2, §1, §3

Compound	numbers of aggregate containing cells / visible aggregates ([1]; 8 h ON then 72 h OFF with drug)	aggregate formation as high molecular weight fraction on the stack (western blot) [1]	cell death (apoptotic nuclear morphology) in Q74-expressing cells [2]	proportions of Q74-expressing cells with aggregates [2]	appearance (size, number) of Q74 aggregates in cells with aggregates [2]	levels of an HA-tagged version of the HD exon 1 fragment with Q74 ([2]; western blot, 10 mM 3-MA)	levels of the transgene protein (EGFP-Q74) ([2]; western blot, 10 mM 3-MA)	cell death (abnormal nuclei) in A19-expressing cells [3]	proportions of A19-expressing cells with aggregates [3]	appearance (size, number) of A19 aggregates in cells with aggregates [3]	levels of the transgene protein (EGFP-A19) ([3]; western blot, 10 mM 3-MA)	cellular fluorescence ([1]; 8 h ON then 48 h OFF with 10 μM epoxomicin)	number of aggregate-containing cells ([1]; 8 h ON then 48 h OFF with 10 μM epoxomicin or 10 μM lactacystin, vs control)	heat shock protein 70 ([1]; epoxomicin treatment)	cell fluorescence (EGFP-Q74 clearance) ([1]; 8 h ON then 72 h OFF with drug, 0.2 μg/ml rapamycin, 10 μg/ml cycloheximide)	Q74 protein levels on a western blot ([1]; 8 h ON, then OFF with 0.2 μg/ml rapamycin, vs untreated control)
Cn1cnc(N)c2ncnc1-2 [3-MA, 3-methyl adenine]	increased	increased aggregate formation	increase	increased	increased their apparent size and number	increase	increase	increase	increased	increased their apparent size and number	increase					
CO/C1=C\C(C)=C\[C@@H](C)[C@@H](O)[C@@H](C)C/C(C)=C/C=C/[C@H](OC)[C@@H]([C@@H](C)[C@@H](O)[C@H](C)[C@@]2(O)C[C@@H](O)[C@H](C)[C@@H](C(C)C)O2)OC1=O [BafA1, Bafilomycin A1]	increased	increased aggregate formation	increase	increased	increased size			increase	increased	increased size						
CC[C@H](C)[C@H](NC(=O)[C@H]([C@@H](C)CC)N(C)C(C)=O)C(=O)N[C@H](C(=O)N[C@@H](CC(C)C)C(=O)[C@@]1(C)CO1)[C@@H](C)O [epoxomicin]			did not affect	did not affect	more aggregates in each aggregate-containing cell				increase	more aggregates in each aggregate-containing cell		obvious increase	reduction	marked increase		
rapamycin			no significant change	no significant change				decrease	decrease						loss of fluorescence	decrease
